Data taken from patent publication US20240201204A1, “Biomarker and Druggable Target of Neurodegeneration” (University Hospitals Cleveland Medical Center, priority 2020, published 2024).

Experiments:
Format in all cases: in vivo, mouse
C57BL/6J mice = test: Foot slip test of motor function after TBI; settings: low-dose salsalate daily IP from 24 h after TBI, vs. TBI+Vehicle
Experimental: (§1) Drug preparation and administration: CGP3466B (Sigma-Aldrich, SML1941) was dissolved in DMSO and then diluted in sterile saline. The final working stock was 0.0014 mg/ml for administering the 0.014 mg/kg dose. Intraperitoneal administration of CGP3466B was initiated 15 min or 24 h after injury, and tissues were harvested 6 h (for SNO-GAPDH, SNO-SIRT1 measurement) or 2 weeks (for ac-tau measurement) later, respectively. Salsalate (AdipoGen, AG-CR1-3574) was dissolved in DMSO and then diluted in sterile PBS. The final working stocks were as follows: 2.5 mg/ml (25 mg/kg dose), 1 mg/ml (10 mg/kg dose), 0.5 mg/ml (5 mg/kg dose). Daily intraperitoneal administration of salsalate was initiated 24 hr after injury and continued throughout behavioral testing. P7C3-A20 and FK866 (Sigma-Aldrich, F8557) were first dissolved in 1 vol of DMSO, followed by addition of 4 vol of Kolliphor and vigorously vortexing. The solution was then diluted with 30 vol of filtered 5% dextrose (pH 7.0). EX527 (Selleckchem, S1541) was dissolved in 1% DMSO+30% polyethylene glycol+1% Tween 80. Daily intraperitoneal administration of P7C3-A20 was initiated 24 hr after poly-traumatic brain injury. […]
Foot slip test of motor function: Mice were trained to cross an 80 cm-long beam over two days and then tested on day 16. Video of the mice was recorded and analyzed by observers blind to treatment group.

tau = test: Tau phosphorylation at S262 after TBI (western blot); settings: salsalate treatment after TBI, vs. Sham-Injury
Experimental: as §1, with “7.0).” for “7.0). EX527 (Selleckchem, S1541) was dissolved in 1% DMSO+30% polyethylene glycol+1% Tween 80. Daily intraperitoneal administration of P7C3-A20 was initiated 24 hr after poly-traumatic brain injury.”
Western blotting: Western blotting was performed as described previously (Min et al., 2010), with the 9AB antibody against acetylated-tau generated in the Gan laboratory. […] Lysates were centrifuged at 170,000 g at 4° C. for 15 min and at 18,000 g at 4° C. for 10 min, after which protein concentrations of supernatants were measured by bicinchoninic acid assay (Thermo Scientific, A53225). […]

[1] = Body weight during treatment after TBI; settings: salsalate daily IP from 24 h after TBI
Experimental: Drug preparation and administration: CGP3466B (Sigma-Aldrich, SML1941) was dissolved in DMSO and then diluted in sterile saline. The final working stock was 0.0014 mg/ml for administering the 0.014 mg/kg dose. […] Salsalate (AdipoGen, AG-CR1-3574) was dissolved in DMSO and then diluted in sterile PBS. The final working stocks were as follows: 2.5 mg/ml (25 mg/kg dose), 1 mg/ml (10 mg/kg dose), 0.5 mg/ml (5 mg/kg dose). Daily intraperitoneal administration of salsalate was initiated 24 hr after injury and continued throughout behavioral testing. […] and FK866 (Sigma-Aldrich, F8557) were first dissolved in 1 vol of DMSO, followed by addition of 4 vol of Kolliphor and vigorously vortexing. The solution was then diluted with 30 vol of filtered 5% dextrose (pH 7.0). EX527 (Selleckchem, […]) was dissolved in 1% DMSO+30% polyethylene glycol+1% Tween 80. Daily intraperitoneal administration of […] was initiated 24 hr after poly-traumatic brain injury. EX527 (10 mg/kg) was administer once a day and FK866 was treated twice per day, with the first injection given at the same time as […] (20 mg/kg) and the second injection given 6 h later (LoCoco et al., 2017 eLife). […] The solution was then diluted with 7 vol of saline to the appropriate concentration for administration at 25, 50, or 100 mg/kg.

## O=C(Oc1ccccc1C(=O)O)c1ccccc1O [salsalate]
C57BL/6J mice
  post-TBI motor impairment (foot slip assay): protects mice from post-TBI impairments
tau
  phosphorylation of tau at S262 in hippocampus: remains significantly decreased in hippocampus
[1]
  body weight: Body weight was not altered
